We go through 22 molecules from PubChem BioAssay (NCI).

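Grown in 96-well plates, cells were treated for 48 hours with each compound at five concentrations. Insufficient inhibition: endpoint recorded as highest concentration tested. GI50 = concentration required for 50% inhibition of growth. At the TGI there is no net growth.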 Bounds are passed on as bounds.

Some test systems named below: HT29 colon; NCI-H460 lung; SK-MEL-28 melanoma; SR leukemia; OVCAR-3 ovarian; OVCAR-8 ovarian; DU-145 prostate; MDA-MB-231 breast; T-47D breast.
Test in all cases: inhibition of tumour cell growth, NCI panel, 48 h

For `Cc1ccc(NC(=O)c2cc3cc(N=Nc4ccc(Br)cc4)ccc3oc2=O)cc1`, the TGI in the test on HT29 colon, with NCI-H460 lung, in the test with SK-MEL-28 melanoma and in the test on SR leukemia was more than 100 µM in each case.
In the case of `O=C(Nc1ccccc1-c1n[nH]c(=S)[nH]c1=O)C(F)(F)F`, the TGI with HT29 colon, in the test on NCI-H460 lung, with OVCAR-3 ovarian, in the test on OVCAR-8 ovarian, in the test with SK-MEL-28 melanoma and in the test with SR leukemia was more than 100 µM throughout.
As for `CS/C(=N\C(=S)N(C)C)N(c1ccccc1)c1nc(=[N+](C)C)ss1`, the TGI in the test with HT29 colon worked out at 11.6 µM; with NCI-H460 lung it was 25.7 µM; in the test on OVCAR-3 ovarian, 22.7 µM; in the test with OVCAR-8 ovarian, 28.1 µM; in the test on SK-MEL-28 melanoma, 9.22 µM; with SR leukemia it was 24.6 µM.
With `ON/N=C/c1cc2c(cc1Br)OCO2`, the TGI in the test with HT29 colon, in the test on NCI-H460 lung, in the test on OVCAR-3 ovarian, with OVCAR-8 ovarian, in the test on SK-MEL-28 melanoma and with SR leukemia was more than 386 µM in each case.
With `CCOC(=O)Nc1cc2nnc(-c3ccccc3)nc2c(N)n1`, the TGI in the test with HT29 colon was 25.7 µM; in the test with NCI-H460 lung, 29.8 µM; in the test on OVCAR-3 ovarian, 48.8 µM; in the test with OVCAR-8 ovarian, 76.4 µM; in the test with SK-MEL-28 melanoma, more than 100 µM; with SR leukemia, 72.2 µM.
Consider `COC(=O)C1=C(c2ccc(OC)c(OC)c2)OC(c2ccc(OC)c(OC)c2)C1` (stereo not given), for which the TGI with HT29 colon, in the test with NCI-H460 lung, in the test on OVCAR-3 ovarian, in the test on OVCAR-8 ovarian, in the test with SK-MEL-28 melanoma and in the test with SR leukemia was more than 100 µM each time.
Regarding `Nc1ccc2c(c1)C(=O)C(=O)c1c-2nc2ccccn12`, the GI50 in the test on DU-145 prostate is 0.556 µM; in the test on HT29 colon it was 3.97 µM; in the test with MDA-MB-231 breast, 1.75 µM; with NCI-H460 lung it was 0.561 µM; in the test with OVCAR-3 ovarian, 1.26 µM; in the test on OVCAR-8 ovarian, 1.29 µM. In addition, the GI50 in the test on SK-MEL-28 melanoma was 1.26 µM; in the test on T-47D breast it was 1.76 µM. Besides, the TGI is 1.79 µM with DU-145 prostate; 34.9 µM in the test with HT29 colon; 4.96 µM with MDA-MB-231 breast; 3.12 µM in the test on NCI-H460 lung; 3.07 µM in the test with OVCAR-3 ovarian; 3.23 µM in the test on OVCAR-8 ovarian. Moreover, the TGI with SK-MEL-28 melanoma came to 2.64 µM; in the test on T-47D breast, 4.13 µM.
Consider `CCCCCCCCCCCCNC(C)=O`, for which the TGI in the test with DU-145 prostate was more than 100 µM; in the test with HT29 colon, 33.6 µM; in the test with MDA-MB-231 breast it was 28.6 µM; in the test with NCI-H460 lung, 32.7 µM; in the test on OVCAR-3 ovarian it was 40.1 µM; in the test with OVCAR-8 ovarian, 44.5 µM. The TGI with SK-MEL-28 melanoma is 31.4 µM; in the test with T-47D breast, 66.3 µM.
As for `Cc1ccc(S(=O)(=O)c2c(N)c3nc4ccccc4n3c3nc4ccccc4nc23)cc1`, the TGI in the test on HT29 colon, with NCI-H460 lung, in the test on OVCAR-3 ovarian, in the test on OVCAR-8 ovarian, in the test with SK-MEL-28 melanoma and in the test on SR leukemia was more than 100 µM throughout.
Consider `Cc1nc(-c2cccc(Nc3nc(-c4ccc(Cl)cc4)cs3)c2)cs1`, for which the GI50 was 9.73 µM in the test with DU-145 prostate; 11.1 µM in the test on MDA-MB-231 breast; 12.4 µM in the test on NCI-H460 lung; 10.5 µM with OVCAR-3 ovarian; 10.1 µM in the test on OVCAR-8 ovarian; 9.6 µM with SK-MEL-28 melanoma. In the test with SR leukemia, the GI50 is 8.31 µM. Besides, the TGI amounted to 18.4 µM in the test on DU-145 prostate; 23.3 µM in the test with MDA-MB-231 breast; 31.6 µM with NCI-H460 lung; 23.1 µM with OVCAR-3 ovarian; 23.2 µM in the test with OVCAR-8 ovarian; 21.3 µM in the test on SK-MEL-28 melanoma. The TGI in the test with SR leukemia came out at 27 µM.
Take `Cc1cc(N(CCC#N)CCC#N)ccc1/C=C1N=C(/C=C\c2ccccc2)OC\1=O`: the TGI in the test on HT29 colon, in the test on NCI-H460 lung, with OVCAR-3 ovarian, in the test with OVCAR-8 ovarian, in the test with SK-MEL-28 melanoma and in the test on SR leukemia was more than 100 µM throughout.
Turning to `O=C(Nc1c(O)[nH]c(=S)[nH]c1=O)c1ccccc1F`, the TGI in the test on HT29 colon, in the test on NCI-H460 lung, in the test on OVCAR-3 ovarian, in the test with OVCAR-8 ovarian, with SK-MEL-28 melanoma and in the test on SR leukemia was more than 100 µM in each case.
Consider `COc1ccc(OC)c(/C=N/NC(=O)Cc2csc3nc(-c4ccc(Br)cc4)cn23)c1`, for which the GI50 is 17.9 µM in the test on DU-145 prostate; 16.4 µM with HT29 colon; 16.4 µM in the test with MDA-MB-231 breast; more than 100 µM in the test with NCI-H460 lung; 15.9 µM in the test on OVCAR-3 ovarian; 11.6 µM in the test with OVCAR-8 ovarian. Also, the results for the GI50 in the test with SK-MEL-28 melanoma and in the test with T-47D breast were 41.5 µM and 41.2 µM, respectively. Besides, the TGI with DU-145 prostate is 48 µM; with HT29 colon, more than 100 µM; with MDA-MB-231 breast, 41.2 µM; in the test on NCI-H460 lung, more than 100 µM; in the test with OVCAR-3 ovarian, 59 µM; in the test on OVCAR-8 ovarian, 38.2 µM. Further, the TGI in the test on SK-MEL-28 melanoma and with T-47D breast was more than 100 µM each time.
Regarding `O=C(/C=C/c1ccc(OCCCOc2ccc(/C=C/C(=O)c3ccccc3)cc2)cc1)c1ccccc1`, the TGI in the test with HT29 colon, in the test with NCI-H460 lung, in the test with OVCAR-3 ovarian, with OVCAR-8 ovarian, with SK-MEL-28 melanoma and in the test with SR leukemia was more than 100 µM each time.
Regarding `C/C(CN1C(=O)c2ccccc2C1=O)=N\NS(=O)(=O)c1ccc(C)cc1`, the TGI with HT29 colon, in the test on NCI-H460 lung, in the test on OVCAR-3 ovarian, with OVCAR-8 ovarian and in the test on SR leukemia was more than 100 µM in each case.
In the case of `O=C1C(Cl)=C(Nc2cccc(Cl)c2)C(=O)N1Cc1ccccc1`, the GI50 with DU-145 prostate was 15.3 µM; in the test with NCI-H460 lung, 7.11 µM; in the test on OVCAR-3 ovarian, 5.02 µM; with OVCAR-8 ovarian, 4.63 µM; in the test on SK-MEL-28 melanoma, 19.5 µM; with SR leukemia it was 2.19 µM. Further, the GI50 with T-47D breast is 33.8 µM. In addition, the TGI with DU-145 prostate was 30.6 µM; in the test on NCI-H460 lung, 27.9 µM; in the test with OVCAR-3 ovarian it was 17.7 µM; in the test on OVCAR-8 ovarian, 32 µM; in the test with SK-MEL-28 melanoma it was 55.5 µM; in the test on SR leukemia, 29.3 µM. In the test on T-47D breast, this molecule came in with a TGI of more than 100 µM.
`C=C1C(=O)O[C@H]2[C@H]1CC/C(CNC(=O)Cc1c[nH]c3ccccc13)=C\CC[C@@]1(C)O[C@@H]21`: the GI50 in the test on DU-145 prostate was 0.834 µM; in the test with HT29 colon, 0.451 µM; with MDA-MB-231 breast it was 3.87 µM; in the test with NCI-H460 lung, 12 µM; with OVCAR-3 ovarian, 0.386 µM; in the test with OVCAR-8 ovarian it was 1.12 µM. Further, the GI50 with SR leukemia was 0.314 µM; in the test with T-47D breast, 1.07 µM. Also, the TGI worked out at 12.3 µM in the test on DU-145 prostate; 11.1 µM in the test on HT29 colon; 17.5 µM in the test on MDA-MB-231 breast; 29.5 µM in the test on NCI-H460 lung; 1.44 µM with OVCAR-3 ovarian; 12.4 µM in the test on OVCAR-8 ovarian. Moreover, the TGI in the test on SR leukemia was 2.84 µM; in the test on T-47D breast, 8.16 µM.
For `NC1=NC(=O)/C(=C/c2ccccc2[N+](=O)[O-])C(N)=N1`, the TGI with HT29 colon, in the test on NCI-H460 lung, with OVCAR-3 ovarian, with OVCAR-8 ovarian, in the test on SK-MEL-28 melanoma and in the test with SR leukemia was more than 100 µM throughout.
Consider `N#Cc1ccccc1NC(=O)/C(=N\N)C(C(=O)c1ccncc1)C1OC(=O)c2ccccc21` (stereo not given), for which the TGI in the test with HT29 colon, with NCI-H460 lung, with OVCAR-3 ovarian, in the test on OVCAR-8 ovarian, with SK-MEL-28 melanoma and in the test on SR leukemia was more than 100 µM throughout.
`COc1ccccc1/C=C(\C#N)c1ccccc1`: the TGI in the test with HT29 colon is more than 100 µM; in the test on NCI-H460 lung, 74.1 µM; in the test on OVCAR-3 ovarian, 51.2 µM; in the test on OVCAR-8 ovarian, more than 100 µM; in the test with SK-MEL-28 melanoma, more than 100 µM; in the test on SR leukemia, 48.8 µM.
Regarding `COc1cc2c(cc1O)CC[C@@H]1[C@@H]2CC[C@]2(C)[C@@H](NCCN(C)C)CC[C@@H]12`, the GI50 with DU-145 prostate is 0.119 µM; in the test with HT29 colon it was 0.101 µM; in the test with MDA-MB-231 breast it was 0.0979 µM; with NCI-H460 lung it was 0.324 µM; in the test with OVCAR-3 ovarian it was 0.123 µM; in the test with SK-MEL-28 melanoma, 0.0883 µM. Besides, in the test with SR leukemia, the GI50 was 0.0989 µM. Also, the TGI was determined as 0.423 µM in the test on DU-145 prostate; 0.393 µM with HT29 colon; 0.391 µM in the test with MDA-MB-231 breast; 0.823 µM in the test with NCI-H460 lung; 0.475 µM in the test with OVCAR-3 ovarian; 0.262 µM with SK-MEL-28 melanoma. Also, the TGI in the test with SR leukemia is 0.437 µM.
For `CN1N=CSC12C(=O)N(c1ccc(Cl)cc1)C(=O)N2c1ccc(Cl)cc1` (stereo not given), the TGI in the test with HT29 colon was 32 µM; in the test with NCI-H460 lung it was 20.4 µM; in the test with OVCAR-3 ovarian, 4.54 µM; in the test with OVCAR-8 ovarian, more than 100 µM; in the test on SK-MEL-28 melanoma it was more than 100 µM; in the test on SR leukemia, more than 100 µM.
